Assay [1] concerns Staphylococcus aureus 209P. As to the kind of experiment: minimal inhibitory concentration, agar dilution method (in vitro). Format: cell-based. An excerpt: (§1) When determined according to the agar dilution method, the penicillins [I] afford the minimal inhibitory concentrations as shown in the following Table 1: […]
Assay [2] concerns Pseudomonas aeruginosa 104. Described as above. Format: cell-based.
Text: as §1

For the next assay, the system named is Proteus miravilis 2425. Described as above. Format: cell-based.
Text: as §1

Another assay relates to Escherichia coli NIHJ. The description is as above. Type of assay: cell-based.
Text: as §1

For assay [3], the system named is Klebsiella pneumoniae 602. The assay is described as above. Type of assay: cell-based.
Text: as §1

The subject of the next assay is Pseudomonas. The note with it: background statement on prior art; cited from earlier work.
Assay [4] relates to various gram-positive and gram-negative bacteria. The note with it: background statement on prior art; cited from earlier work.

Values after ≈ are worked out from the molar mass of the structure shown. A value given as a limit tells only on which side of the number the result lay.

We go through 19 compounds from patent publication US3951955A, “Penicillins substituted with heterocyclic groups” (Sumitomo Chemical Company, Limited, priority 1970, dated 1976).

Regarding `COc1cc2ncc(C(=O)NC(C(=O)NC3C(=O)N4C3SC(C)(C)C4C(=O)O)c3ccccc3)c(O)c2cn1` (stereo not shown) [Example 60], the MIC in assay [1] came out at 1.56 µg/mL (≈ 2.83 µM); in assay [2], 12.5 µg/mL (≈ 22.7 µM); against Proteus miravilis 2425, 3.13 µg/mL (≈ 5.67 µM); in the assay on Escherichia coli NIHJ, 6.25 µg/mL (≈ 11.3 µM); in assay [3], 3.13 µg/mL (≈ 5.67 µM).
`Cc1ncc2ncc(C(=O)NC(C(=O)NC3C(=O)N4C3SC(C)(C)C4C(=O)O)c3ccccc3)c(O)c2n1` (stereo not shown) [Example 56]: the MIC in assay [1] is 0.78 µg/mL (≈ 1.45 µM); in assay [2] it was 3.13 µg/mL (≈ 5.83 µM); with Proteus miravilis 2425, 6.25 µg/mL (≈ 11.6 µM); against Escherichia coli NIHJ it was 3.13 µg/mL (≈ 5.83 µM); in assay [3] it was 3.13 µg/mL (≈ 5.83 µM).
Turning to `CC1(C)S[C@@H]2[C@H](NC(=O)[C@H](NC(=O)c3cnc4ccccc4c3O)c3ccccc3)C(=O)N2[C@H]1C(=O)O` [Example 3, D-(-)-α-(4-hydroxyquinoline-3-carbonamido)-benzylpenicillin], the minimum inhibitory concentration (MIC) in assay [1] was found to be 0.2 µg/mL (≈ 0.384 µM); in assay [2] it was 6.25 µg/mL (≈ 12 µM); against Proteus miravilis 2425 it was 3.13 µg/mL (≈ 6.01 µM); in the assay on Escherichia coli NIHJ it was 6.25 µg/mL (≈ 12 µM); in assay [3], 1.56 µg/mL (≈ 3 µM).
Turning to `Cc1cnc2c(O)c(C(=O)NC(C(=O)NC3C(=O)N4C3SC(C)(C)C4C(=O)O)c3ccccc3)cnc2c1` (stereo not shown) [Example 33], the minimum inhibitory concentration (MIC) in assay [1] turned out to be 1.56 µg/mL (≈ 2.91 µM); in assay [2], 6.25 µg/mL (≈ 11.7 µM); in the assay on Proteus miravilis 2425, 3.13 µg/mL (≈ 5.84 µM); in the assay on Escherichia coli NIHJ, 3.13 µg/mL (≈ 5.84 µM); in assay [3], 3.13 µg/mL (≈ 5.84 µM).
In the case of `CC(=O)Nc1ccc2ncc(C(=O)NC(C(=O)N[C@@H]3C(=O)N4[C@@H]3SC(C)(C)[C@@H]4C(=O)O)c3ccccc3)c(O)c2c1` (stereo partly shown) [Example 23], the MIC in assay [1] came to 0.78 µg/mL (≈ 1.35 µM); in assay [2], 12.5 µg/mL (≈ 21.6 µM); against Proteus miravilis 2425, 3.13 µg/mL (≈ 5.42 µM); in the assay on Escherichia coli NIHJ, 12.5 µg/mL (≈ 21.6 µM); in assay [3], 3.13 µg/mL (≈ 5.42 µM).
As to `CC1(C)S[C@@H]2[C@H](NC(=O)C(NC(=O)c3cnc4ccc(O)nc4c3O)c3ccccc3)C(=O)N2[C@H]1C(=O)O` (stereo partly shown) [Example 29], the MIC in assay [1] amounted to 1.56 µg/mL (≈ 2.9 µM); in assay [2] it was 3.13 µg/mL (≈ 5.82 µM); against Proteus miravilis 2425 it was 3.13 µg/mL (≈ 5.82 µM); with Escherichia coli NIHJ, 1.56 µg/mL (≈ 2.9 µM); in assay [3] it was 3.13 µg/mL (≈ 5.82 µM).
For the compound `CC1(C)SC2C(NC(=O)C(NC(=O)c3cnc4ncncc4c3O)c3ccccc3)C(=O)N2C1C(=O)O` (stereo not shown) [Example 47], the MIC was 0.78 µg/mL (≈ 1.49 µM) in assay [1]; 3.13 µg/mL (≈ 5.99 µM) in assay [2]; 6.25 µg/mL (≈ 12 µM) against Proteus miravilis 2425; 3.13 µg/mL (≈ 5.99 µM) against Escherichia coli NIHJ; 3.13 µg/mL (≈ 5.99 µM) in assay [3].
As to `CC1(C)S[C@@H]2C(NC(=O)C(N)c3ccccc3)C(=O)N2[C@H]1C(=O)O` (stereo partly drawn) [Ampicillin, 6-(α-aminophenylacetamido)-penicillanic acid, reference compound], the “antimicrobial activity against Pseudomonas” value in the assay on Pseudomonas is “does not exert any appreciable antimicrobial activity against Pseudomonas”. Further, the MIC was 0.2 µg/mL (≈ 0.572 µM) in assay [1]; greater than 200 µg/mL in assay [2]; 3.13 µg/mL (≈ 8.96 µM) in the assay on Proteus miravilis 2425; 6.25 µg/mL (≈ 17.9 µM) with Escherichia coli NIHJ; 50 µg/mL (≈ 143 µM) in assay [3]. Besides, the “growth inhibition / antimicrobial activity against gram-positive and gram-negative bacteria” value in assay [4] was “inhibits the growth of various gram-positive and gram-negativebacteria”.
With `CC1(C)SC2C(NC(=O)C(NC(=O)c3cnc4cnc(O)nc4c3O)c3ccccc3)C(=O)N2C1C(=O)O` (stereo not shown) [Example 53], the MIC in assay [1] was 1.56 µg/mL (≈ 2.9 µM); in assay [2], 6.25 µg/mL (≈ 11.6 µM); against Proteus miravilis 2425 it was 6.25 µg/mL (≈ 11.6 µM); with Escherichia coli NIHJ it was 3.13 µg/mL (≈ 5.81 µM); in assay [3] it was 6.25 µg/mL (≈ 11.6 µM).
For `CC(=O)Nc1ccc2ncc(C(=O)NC(C(=O)N[C@@H]3C(=O)N4[C@@H]3SC(C)(C)[C@@H]4C(=O)O)c3ccccc3)c(O)c2n1` (stereo partly shown) [Example 30], the minimal inhibitory concentration (MIC) came to 0.78 µg/mL (≈ 1.35 µM) in assay [1]; 6.25 µg/mL (≈ 10.8 µM) in assay [2]; 6.25 µg/mL (≈ 10.8 µM) in the assay on Proteus miravilis 2425; 3.13 µg/mL (≈ 5.41 µM) in the assay on Escherichia coli NIHJ; 3.13 µg/mL (≈ 5.41 µM) in assay [3].
Take `CC1(C)SC2C(NC(=O)C(NC(=O)c3cnc4nc(N)ncc4c3O)c3ccccc3)C(=O)N2C1C(=O)O` (stereo not shown) [Example 49]: the minimal inhibitory concentration (MIC) in assay [1] was found to be 0.78 µg/mL (≈ 1.45 µM); in assay [2], 12.5 µg/mL (≈ 23.3 µM); with Proteus miravilis 2425 it was 6.25 µg/mL (≈ 11.6 µM); against Escherichia coli NIHJ, 6.25 µg/mL (≈ 11.6 µM); in assay [3], 6.25 µg/mL (≈ 11.6 µM).
Consider `CC1(C)SC2C(NC(=O)C(NC(=O)c3cnc4cncnc4c3O)c3cccs3)C(=O)N2C1C(=O)O` (stereo not shown) [Example 58], for which the minimal inhibitory concentration (MIC) is 0.78 µg/mL (≈ 1.48 µM) in assay [1]; 3.13 µg/mL (≈ 5.92 µM) in assay [2]; 3.13 µg/mL (≈ 5.92 µM) in the assay on Proteus miravilis 2425; 1.56 µg/mL (≈ 2.95 µM) in the assay with Escherichia coli NIHJ; 1.56 µg/mL (≈ 2.95 µM) in assay [3].
As to `COc1ccc2c(O)c(C(=O)NC(C(=O)N[C@@H]3C(=O)N4[C@@H]3SC(C)(C)[C@@H]4C(=O)O)c3ccccc3)cnc2c1` (stereo partly shown) [Example 18], the MIC in assay [1] is 0.39 µg/mL (≈ 0.708 µM); in assay [2] it was 6.25 µg/mL (≈ 11.4 µM); in the assay with Proteus miravilis 2425, 1.56 µg/mL (≈ 2.83 µM); in the assay with Escherichia coli NIHJ, 6.25 µg/mL (≈ 11.4 µM); in assay [3] it was 0.78 µg/mL (≈ 1.42 µM).
`CC1(C)S[C@@H]2[C@H](NC(=O)C(NC(=O)c3cnc4cc([N+](=O)[O-])ccc4c3O)c3ccccc3)C(=O)N2[C@H]1C(=O)O` (stereo partly shown) [Example 21]: the minimum inhibitory concentration (MIC) amounted to 0.39 µg/mL (≈ 0.69 µM) in assay [1]; 12.5 µg/mL (≈ 22.1 µM) in assay [2]; 6.25 µg/mL (≈ 11.1 µM) with Proteus miravilis 2425; 12.5 µg/mL (≈ 22.1 µM) with Escherichia coli NIHJ; 0.78 µg/mL (≈ 1.38 µM) in assay [3].
Turning to `CC1(C)S[C@@H]2[C@H](NC(=O)C(NC(=O)c3cnc4cccnc4c3O)c3ccccc3)C(=O)N2[C@H]1C(=O)O` (stereo partly shown) [Example 27], the minimal inhibitory concentration (MIC) was determined as 0.78 µg/mL (≈ 1.5 µM) in assay [1]; 3.13 µg/mL (≈ 6 µM) in assay [2]; 3.13 µg/mL (≈ 6 µM) against Proteus miravilis 2425; 1.56 µg/mL (≈ 2.99 µM) against Escherichia coli NIHJ; 6.25 µg/mL (≈ 12 µM) in assay [3].
Turning to `CCCCNc1ccc2ncc(C(=O)NC(C(=O)NC3C(=O)N4C3SC(C)(C)C4C(=O)O)c3ccccc3)c(O)c2n1` (stereo not shown) [Example 36], the minimum inhibitory concentration (MIC) in assay [1] worked out at 1.56 µg/mL (≈ 2.63 µM); in assay [2], 3.13 µg/mL (≈ 5.28 µM); in the assay with Proteus miravilis 2425, 3.13 µg/mL (≈ 5.28 µM); against Escherichia coli NIHJ, 1.56 µg/mL (≈ 2.63 µM); in assay [3], 3.13 µg/mL (≈ 5.28 µM).
Turning to `CCOC(=O)Oc1c(C(=O)NC(C(=O)N[C@@H]2C(=O)N3[C@@H]2SC(C)(C)[C@@H]3C(=O)O)c2ccccc2)cnc2cc(Cl)ccc12` (stereo partly shown) [Example 16], the MIC is 0.2 µg/mL (≈ 0.319 µM) in assay [1]; 3.13 µg/mL (≈ 4.99 µM) in assay [2]; 3.13 µg/mL (≈ 4.99 µM) against Proteus miravilis 2425; 6.25 µg/mL (≈ 9.97 µM) with Escherichia coli NIHJ; 0.39 µg/mL (≈ 0.622 µM) in assay [3].
With `CNc1ccc2ncc(C(=O)NC(C(=O)NC3C(=O)N4C3SC(C)(C)C4C(=O)O)c3ccccc3)c(O)c2n1` (stereo not shown) [Example 35], the minimum inhibitory concentration (MIC) in assay [1] amounted to 0.78 µg/mL (≈ 1.42 µM); in assay [2], 3.13 µg/mL (≈ 5.68 µM); in the assay on Proteus miravilis 2425 it was 6.25 µg/mL (≈ 11.4 µM); against Escherichia coli NIHJ it was 1.56 µg/mL (≈ 2.83 µM); in assay [3] it was 3.13 µg/mL (≈ 5.68 µM).
Turning to `COc1ccc2ncc(C(=O)NC(C(=O)N[C@@H]3C(=O)N4[C@@H]3SC(C)(C)[C@@H]4C(=O)O)c3ccccc3)c(O)c2c1` (stereo partly shown) [Example 19], the minimal inhibitory concentration (MIC) in assay [1] is 0.39 µg/mL (≈ 0.708 µM); in assay [2] it was 6.25 µg/mL (≈ 11.4 µM); in the assay with Proteus miravilis 2425, 1.56 µg/mL (≈ 2.83 µM); against Escherichia coli NIHJ, 6.25 µg/mL (≈ 11.4 µM); in assay [3], 0.78 µg/mL (≈ 1.42 µM).
